Assay results published in publication PMC8279416, “Structural Fine-Tuning of Desmuramylpeptide NOD2 Agonists Defines Their In Vivo Adjuvant Activity” (Journal of Medicinal Chemistry, 2021).

Columns and labels:
PBMCs = test: RNA sequencing of PBMCs, differential expression analysis; assay type: cell-based, human; details: 2 μM, 18 h; for Number of genes with significantly modulated expression: FDR <0.05, fold change >1.5 or <0.667 vs 0.1% DMSO; for Number of differentially expressed genes: down-regulated / Number of differentially expressed genes: up-regulated: vs 0.1% DMSO
Procedure: Based on the potent in vitro NOD2 activation by 68 and the PBMC cytotoxicity activation by 75, we explored the effects of 68 and 75 in terms of induction at the transcriptional level. Next-generation sequencing of RNA isolated from PBMCs was carried out following their stimulation for 18 h with 68 or 75 (2 μM). After applying a low expression filter, the remaining 19046 genes from the desmuramylpeptide-treated samples were compared to the vehicle-treated controls (0.1% DMSO).
Peripheral blood mononuclear cells from three independent donors were seeded (2 × 10^6 cells/mL) in 24-well plates in 1 mL of growth medium and treated with the compounds (2 μM) or vehicle (0.1% DMSO) for 18 h at 37 °C in 5% CO2. The cells were washed with phosphate-buffered saline, resuspended in RNAlater RNA stabilization solution (Sigma-Aldrich, St. Louis, MO, U.S.A.), and stored at −80 °C. RNA extraction, library construction, and sequencing were conducted by Genewiz (Leipzig, Germany).
Briefly, total RNA was extracted using the RNeasy mini kit (Qiagen, Hilden, Germany) according to the manufacturer protocol. RNA samples were quantified using Qubit 4.0 Fluorometer (Life Technologies, Carlsbad, CA, U.S.A.), and RNA integrity was checked with RNA Kit on a 5600 Fragment Analyzer (Agilent Technologies, Palo Alto, CA, U.S.A.). All RNA samples were of high quality with an RNA quality number of ≥9.4. RNA sequencing libraries were prepared using NEBNext Ultra II RNA library prep kit for Illumina according to the manufacturer instructions (New England Biolabs, Ipswich, MA, U.S.A.). Libraries were loaded on the Illumina NovaSeq 6000 instrument, and clustering was performed directly on the NovaSeq before sequencing according to the manufacturer instructions. The samples were sequenced using a 2 × 150 paired end configuration. Image analysis and base calling were conducted by the NovaSeq Control Software. Raw sequence data (.bcl files) generated from the Illumina NovaSeq were converted into fastq files and demultiplexed using Illumina’s bcl2fastq 2.19 software. One mismatch was allowed for index sequence identification. After investigating the quality of the raw data, sequence reads were trimmed to remove possible adapter sequences and nucleotides with poor quality using Trimmomatic v.0.36. The trimmed reads were mapped to the Homo sapiens reference genome as available on ENSEMBL, using STAR aligner v.2.5.2b, thus generating BAM files. Unique gene hit counts were calculated using feature counts from the Subread package v.1.5.2. Only unique reads that fell within exon regions were counted. After extraction of gene hit counts, the gene hit counts table was used for downstream differential expression analysis.
Differential expression analysis was performed with iDEP.91.[128] First, a low expression filter was applied (0.5 counts per million in at least 1 library). The remaining gene counts were normalized by counts per million in the EdgeR package, with a pseudocount of 4. Differential gene expression analysis was performed with the DESeq2 method, using a false discovery rate <0.05 and a gene expression fold change >1.5 or <0.667 as the cutoff values. The list of differentially expressed genes was then used as input for gene annotation and pathway enrichment analysis with Metascape.[94]

[1] = system: CD4+ T cells (OT II) cocultured with BMDCs; test: BMDC antigen presentation assay with ovalbumin-specific CD4+ T cells; assay type: cell-based, mouse; details: ovalbumin 50 μg/mL, 72 h coculture
Procedure: To evaluate the adjuvant potential of the two most-promising desmuramylpeptides, 68 and 75, in terms of their effects on DC-mediated activation of CD4^+ and CD8^+ T cells, we used an in vitro antigen-presentation assay with C57BL/6 mouse bone-marrow-derived DCs (BMDCs). Following stimulation with 68 and 75 (1 or 10 μM) in the presence of ovalbumin soluble protein (50 μg/mL), BMDCs were cocultured with carboxyfluorescein succinimidyl ester (CFSE)-labeled naive ovalbumin-specific CD4^+ or CD8^+ T cells, which were isolated from splenocytes of OT II and OT I transgenic mice, respectively. After 3 days of coculture, CD25 (α subunit of IL-2 receptor)[108] expression was determined, along with the CFSE dilution, as markers of T-cell activation and proliferation, respectively. Furthermore, we also examined how this desmuramylpeptide-induced priming of T cells affected the secreted cytokine profiles in BMDC/T-cell cocultures.
CD4^+ and CD8^+ T cells were purified from splenocytes of OT II and OT I transgenic mice using CD4^+ and CD8^+ T cell isolation kits (Miltenyi Biotec, Germany), according to manufacturer instructions. Purified T cells were stained with CFSE (Invitrogen, Carlsbad, CA, U.S.A.) and washed. Then, 5 × 10^4 T cells were mixed with 1 × 10^4 BMDCs per well (pretreated with desmuramylpeptides [1 or 10 μM] and 50 μg/mL ovalbumin [InvivoGen, San Diego, CA, U.S.A.] for 18 h, and then washed). […] The cells were stained with Fixable viability dye eFluor 780 (eBioscience, Thermo Fisher Scientific, MA, U.S.A.), anti-Thy1.2-PE-Cy7 antibodies (Biolegend, San Diego, CA, U.S.A.), anti-CD8-eFluor450 antibodies (eBioscience), anti-CD4-eFluor450 antibodies (eBioscience), and anti-CD25-APC antibodies (Biolegend) and analyzed using a Beckman Coulter Cytoflex S flow cytometer (CA, U.S.A.) and FlowJo software (Tree Star, Inc., Ashland, OR, U.S.A.). Live Thy1.2^+/CD4^+ and Thy1.2^+/CD8^+ were evaluated for CFSE dilution and CD25 expression. […] Statistical significance was determined by one-way ANOVA followed by Dunnett’s multiple comparisons test.

[2] = 10 μM, CD25 expression and CFSE dilution

Compound | Modulation of interferon-stimulated genes (ISGs) (PBMCs) | Number of genes with significantly modulated expression (PBMCs) | Number of differentially expressed genes: down-regulated (PBMCs) | Number of differentially expressed genes: up-regulated (PBMCs) | BMDC-mediated CD4+ T-cell activation and proliferation ([1]; 1 μM) | BMDC-mediated CD4+ T-cell activation and proliferation [1, 2]
COc1cc(/C=C/C(=O)NCC(=O)N[C@H](C(=O)N[C@H](CCC(=O)OC2CCCC2)C(=O)OC2CCCC2)C(C)C)ccc1O [Compound 68, Dicyclopentyl ((E)-3-(4-Hydroxy-3-methoxyphenyl)acryloyl)glycyl-L-valyl-D-glutamate] | up-regulation of several interferon-stimulated genes | 445 genes | 215 genes | 230 genes | also showed this effect | significantly enhanced
CCCCCCCCCCCCCCCCCC(=O)Oc1ccc(/C=C/C(=O)NCC(=O)N[C@H](C(=O)N[C@H](CCC(=O)OCC)C(=O)OCC)C(C)C)cc1OC [Compound 75, Diethyl ((E)-3-(3-Methoxy-4-(stearoyloxy)phenyl)acryloyl)glycyl-L-valyl-D-glutamate] |  | 270 genes | 143 genes | 127 genes |  | significantly enhanced
